Reference: US8158646B2, “Antifungal and antiparasitic indoloquinoline derivates” (Florida Agricultural and Mechanical University, priority 2006, dated 2012)
In brackets after ≈: the same amount, converted by molar mass. Like-named read-outs stand apart in the source and are kept apart here.

Experiments:
[1] = test system: Cryptococcus neoformans ATCC 90113; assay: Antifungal susceptibility testing (modified NCCLS), Cn; format: cell-based
Procedure: (§1) Compounds were evaluated in vitro against a panel of microorganisms, including Candida albicans ATCC 90028 (Ca), C. krusei ATCC 6258 (Ck), Cryptococcus neoformans ATCC 90113 (Cn), Staphylococcus aureus ATCC 29213 (Sa), methicillin-resistant S. aureus ATCC 43300 (MRSA), Pseudomonas aeruginosa ATCC 27853 (Pa), Aspergilllus fumigatus ATCC 90906 (Aj), and Mycobacterium intracellulare ATCC 23068 (Mi) as previously reported [Guoyi, M.; Khan, S.; Jacob, M. R; Tekwani, B. L.; Li, Z.; Pasco, D. S.; Walker, L. A.; Khan, 1. A.; Antimicrob Agents Chemother, 2004, 48, 4450-4452]. All organisms were obtained from the American Type Culture Collection (Manassas, Va.). Susceptibility testing was performed using a modified version of the NCCLS methods [a) National Committee for Clinical Laboratory Standards. 2000. Methods for dilution antimicrobial susceptibility tests for bacteria that grow aerobically. M7-A5. National Committee for Clinical Laboratory Standards, Wayne, Pa. b) National Committee for Clinical Laboratory Standards, 1997, Reference method for broth dilution antifungal susceptibility testing of yeasts. Approved standard M27-A. National Committee for Clinical Laboratory Standards, Wayne, Pa. c) National Committee for Clinical Laboratory Standards. 2000. Susceptibility testing of mycobacteria, nocardia, and other aerobic actinomycetes, 2nd ed. Tentative standard M24- T2. National Committee for Clinical Laboratory Standards, Wayne, Pa.] for all organisms except for M intracellulare, for which the modified Alamar blue procedure described by Franzblau et al [1998. J Clin Microbiol, 36, 362-366] was followed. Briefly, samples (dissolved in DMSO) were serially diluted by using 0.9% saline and transferred in duplicate to 96-well microplates. Microbial inocula were prepared after comparison of the absorbance (at 630 nm) of cell suspensions to the 0.5 McFarland standard and dilution of the suspensions in broth (Sabouraud dextrose and cation-adjusted Mueller-Hinton broth [Difco] for the fungi and bacteria, respectively, and 5% Alamar blue [BioSource international] in Middlebrook 7H9 broth with oleic acid-albumin-dextrose-catalase enrichment for M intracellulare) to afford recommended inoculum sizes. Microbial inocula were added to the samples to achieve a final volume of 200 μl and final sample concentrations starting with 100 μg/ml. Growth, solvent, and medium controls were included on each test plate. The plates were read at either 630 nm or excitation and emission wavelengths of 544 and 590 nm (for Mi) prior to and after incubation. Percent growth was calculated and plotted with the concentration tested to afford the concentration that inhibits 50% of growth (IC50). Antimalarial and cytotoxicity testing were conducted in a similar manner as previously reported [a) Muhammad, 1.; Bedir, E.; Khan, S. I.; Tekwani, B. L.; Khan, I. A.; Takamatsu, S.; Pelletier, 1.; Walker, L. A. J Nat Prod. 2004, 67, 772-7. b) Muhammad, 1.; Dunbar, D. C.; Khan, S. 1.; Tekwani, B. L.; Bedir, E.; Takamatsu, S.; Ferreira, D, Walker L A., J Nat Prod. 2003, 66, 962-7].

[2] = test system: Candida albicans ATCC 90028; assay: Antifungal susceptibility testing (modified NCCLS), Ca; format: cell-based
Procedure: as §1

[3] = test system: Plasmodium falciparum W2 Clone; assay: Antimalarial testing, W2 clone; format: cell-based; settings: for IC50: Plasmodium falciparum
Procedure: as §1

[4] = test system: Vero cells; assay: Cytotoxicity to mammalian cells (Vero); format: cell-based
Procedure: (§2) All organisms were obtained from the American Type Culture Collection (Manassas, Va.). Susceptibility testing was performed using a modified version of the NCCLS methods [a) National Committee for Clinical Laboratory Standards. 2000. Methods for dilution antimicrobial susceptibility tests for bacteria that grow aerobically. M7-A5. […] Approved standard M27-A. National Committee for Clinical Laboratory Standards, Wayne, Pa. c) National Committee for Clinical Laboratory Standards. 2000. Susceptibility testing of mycobacteria, nocardia, and other aerobic actinomycetes, 2nd ed. Tentative standard M24- T2. […] Briefly, samples (dissolved in DMSO) were serially diluted by using 0.9% saline and transferred in duplicate to 96-well microplates. Microbial inocula were prepared after comparison of the absorbance (at 630 nm) of cell suspensions to the 0.5 McFarland standard and dilution of the suspensions in broth (Sabouraud dextrose and cation-adjusted Mueller-Hinton broth [Difco] for the fungi and bacteria, respectively, and 5% Alamar blue [BioSource international] in Middlebrook 7H9 broth with oleic acid-albumin-dextrose-catalase enrichment for M intracellulare) to afford recommended inoculum sizes. Microbial inocula were added to the samples to achieve a final volume of 200 μl and final sample concentrations starting with 100 μg/ml. Growth, solvent, and medium controls were included on each test plate. […] Antimalarial and cytotoxicity testing were conducted in a similar manner as previously reported [a) Muhammad, 1.; Bedir, E.; Khan, S. I.; Tekwani, B. L.; Khan, I. A.; Takamatsu, S.; Pelletier, 1.; Walker, L. A. J Nat Prod.

[5] = test system: methicillin-resistant S. aureus ATCC 43300; assay: Antimicrobial susceptibility testing, MRSA; format: cell-based, Staphylococcus aureus; settings: read-out: IC50 MRSA
Procedure: as §1, with “Antimalarial and cytotoxicity testing were conducted in a similar manner as previously reported [a) Muhammad, 1.; Bedir, E.; Khan, S. I.; Tekwani, B. L.; Khan, I. A.; Takamatsu, S.; Pelletier, 1.; Walker, L. A. J Nat Prod. 2004, 67, 772-7. b) Muhammad, 1.; Dunbar, D. C.; Khan, S. 1.; Tekwani, B. L.; Bedir, E.; Takamatsu, S.; Ferreira, D, Walker L A., J Nat Prod. 2003, 66, 962-7].” left out

[6] = test system: Plasmodium falciparum D6 Clone; assay: Antimalarial testing, D6 clone; format: cell-based; settings: for IC50: Plasmodium falciparum
Procedure: as §2

[7] = test system: Aspergillus fumigatus ATCC 90906; assay: Antimicrobial susceptibility testing, Af; format: cell-based; settings: ATCC90906, read-out: IC50 Af
Procedure: as §1, with “Antimalarial and cytotoxicity testing were conducted in a similar manner as previously reported [a) Muhammad, 1.; Bedir, E.; Khan, S. I.; Tekwani, B. L.; Khan, I. A.; Takamatsu, S.; Pelletier, 1.; Walker, L. A. J Nat Prod. 2004, 67, 772-7. b) Muhammad, 1.; Dunbar, D. C.; Khan, S. 1.; Tekwani, B. L.; Bedir, E.; Takamatsu, S.; Ferreira, D, Walker L A., J Nat Prod. 2003, 66, 962-7].” left out

[8] = test system: C. krusei ATCC 6258; assay: Antimicrobial susceptibility testing, Ck; format: cell-based, Candida krusei; settings: Pichia kudriavzevii, ATCC6258, read-out: IC50 Ck
Procedure: as §1, with “National Committee for Clinical Laboratory Standards, Wayne, Pa.] for all organisms except for M intracellulare, for which the modified Alamar blue procedure described by Franzblau et al [1998. J Clin Microbiol, 36, 362-366] was followed. Briefly, samples (dissolved in DMSO) were serially diluted by using 0.9% saline and transferred in duplicate to 96-well microplates.” left out, “Microbial inocula were added to the samples to achieve a final volume of 200 μl and final sample concentrations starting with 100 μg/ml. Growth, solvent, and medium controls were included on each test plate.” left out, “Percent growth was calculated and plotted with the concentration tested to afford the concentration that inhibits 50% of growth (IC50). Antimalarial and cytotoxicity testing were conducted in a similar manner as previously reported [a) Muhammad, 1.; Bedir, E.; Khan, S. I.; Tekwani, B. L.; Khan, I. A.; Takamatsu, S.; Pelletier, 1.; Walker, L. A. J Nat Prod. 2004, 67, 772-7. b) Muhammad, 1.; Dunbar, D. C.; Khan, S. 1.; Tekwani, B. L.; Bedir, E.; Takamatsu, S.; Ferreira, D, Walker L A., J Nat Prod. 2003, 66, 962-7].” left out

[9] = test system: Mycobacterium intracellulare ATCC 23068; assay: Modified Alamar blue procedure, Mi; format: cell-based; settings: ATCC23068, read-out: IC50 Mi
Procedure: as §1, with “Antimalarial and cytotoxicity testing were conducted in a similar manner as previously reported [a) Muhammad, 1.; Bedir, E.; Khan, S. I.; Tekwani, B. L.; Khan, I. A.; Takamatsu, S.; Pelletier, 1.; Walker, L. A. J Nat Prod. 2004, 67, 772-7. b) Muhammad, 1.; Dunbar, D. C.; Khan, S. 1.; Tekwani, B. L.; Bedir, E.; Takamatsu, S.; Ferreira, D, Walker L A., J Nat Prod. 2003, 66, 962-7].” left out

[10] = test system: Pseudomonas aeruginosa ATCC 27853; assay: Antimicrobial susceptibility testing, Pa; format: cell-based; settings: ATCC27853, NA = Not active up to 20 μg/ml
Procedure: (§3) Compounds were evaluated in vitro against a panel of microorganisms, including Candida albicans ATCC 90028 (Ca), C. krusei ATCC 6258 (Ck), Cryptococcus neoformans ATCC 90113 (Cn), Staphylococcus aureus ATCC 29213 (Sa), methicillin-resistant S. aureus ATCC 43300 (MRSA), Pseudomonas aeruginosa ATCC 27853 (Pa), Aspergilllus fumigatus ATCC 90906 (Aj), and Mycobacterium intracellulare ATCC 23068 (Mi) as previously reported [Guoyi, M.; Khan, S.; Jacob, M. R; Tekwani, B. L.; Li, Z.; Pasco, D. S.; Walker, L. A.; Khan, 1. A.; Antimicrob Agents Chemother, 2004, 48, 4450-4452]. All organisms were obtained from the American Type Culture Collection (Manassas, Va.). Susceptibility testing was performed using a modified version of the NCCLS methods [a) National Committee for Clinical Laboratory Standards. 2000. […] Microbial inocula were prepared after comparison of the absorbance (at 630 nm) of cell suspensions to the 0.5 McFarland standard and dilution of the suspensions in broth (Sabouraud dextrose and cation-adjusted Mueller-Hinton broth [Difco] for the fungi and bacteria, respectively, and 5% Alamar blue [BioSource international] in Middlebrook 7H9 broth with oleic acid-albumin-dextrose-catalase enrichment for M intracellulare) to afford recommended inoculum sizes. […] The plates were read at either 630 nm or excitation and emission wavelengths of 544 and 590 nm (for Mi) prior to and after incubation. […]

[11] = test system: Staphylococcus aureus ATCC 29213; assay: Antimicrobial susceptibility testing, Sa; format: cell-based; settings: ATCC29213
Procedure: as §3

[12] = W2, read-out: Plasmodium falciparum IC50 Pf (W2)
[13] = Vero cells, NC = No Cytotoxicity observed up to 5 μg/ml
[14] = D6, read-out: Plasmodium falciparum IC50 Pf (D6)

In the case of Cn1c2ccccc2c2c1cc1ccccc1[n+]2CCCCCc1ccccc1.[Br-] [Compound 7b], the “IC50 Cn” value ([1]; NA not defined in Table 1) is reported as 4.3 µg/mL and the “IC50 Ca” value ([2]; NA not defined in Table 1) is reported as 4.3 µg/mL.
In the case of Cn1c2c3ccccc3nc-2cc2ccccc21 [Compound 2b, cryptolepine, reference compound], the IC50 [3, 12] is reported as 0.13 µg/mL (≈ 0.56 µM), the “SI (W2)” value ([3]; SI = IC50 (vero cells)/IC50 (Pf), W2 Clone) is reported as 18.5 and the “Cytotoxicity (Vero) TC50” value [4, 13] is reported as 2.4 µg/mL. For the same molecule, the IC50 ([5]; Staphylococcus aureus) was 20 µg/mL (≈ 86.1 µM), the IC50 [6, 14] was 0.044 µg/mL (≈ 0.189 µM) and the “SI (D6)” value ([6]; SI = IC50 (vero cells)/IC50 (Pf), D6 Clone) was 54. It also gave an IC50 [7] greater than 20 µg/mL, an IC50 [8] of 4.5 µg/mL (≈ 19.4 µM) and an IC50 [9] of 15 µg/mL (≈ 64.6 µM).
For CCN(CC)CCCC(C)Nc1ccnc2cc(Cl)ccc12 (stereo not drawn) [Chloroquine, reference compound], the IC50 [3, 12] was 0.075 µg/mL (≈ 0.234 µM), the “Cytotoxicity (Vero) TC50” value [4, 13] was greater than 23.8 µg/mL and the IC50 [6, 14] was 0.017 µg/mL (≈ 0.0531 µM).
With O=C(O)c1cn(C2CC2)c2cc(N3CCNCC3)c(F)cc2c1=O [Ciprofloxacin, reference compound] the IC50 [10] was 0.06 µg/mL (≈ 0.181 µM), the IC50 ([5]; Methicillin-Resistant Staphylococcus aureus) was 0.15 µg/mL (≈ 0.453 µM) and the IC50 [9] was 0.2 µg/mL (≈ 0.604 µM). For the same molecule, the IC50 [11] was 0.1 µg/mL (≈ 0.302 µM).
With C[C@@H]1CC[C@H]2[C@@H](C)C(=O)O[C@@H]3O[C@@]4(C)CC[C@@H]1[C@]32OO4 [Artemisinin, reference compound] the IC50 ([3]; W2 Clone, NA = Not active up to 20 μg/ml, read-out: Plasmodium falciparum IC50 Pf (W2)) was 0.0031 µg/mL (≈ 0.011 µM), the “Cytotoxicity (Vero) TC50” value ([4]; African green monkey) was greater than 23.8 µg/mL and the IC50 ([6]; D6 Clone, read-out: Plasmodium falciparum IC50 Pf (D6)) was 0.0085 µg/mL (≈ 0.0301 µM).
Molecule C[n+]1c(-c2ccccc2)ccc2ccccc21 [Compound 8a] has an IC50 ([1]; ATCC90113, read-out: IC50 Cn) of 43 µg/mL, an IC50 ([2]; ATCC90028, read-out: IC50 Ca) of 180 µg/mL and a melting point of 196 to 198 °C.
